“Also recorded” adds a separate entry of the source. Read-outs that look alike come from different tables or passages of the source.
Tests used:
[1] = Peak plasma levels (Cmax) of compounds and metabolites on day 14 by UHPLC-MS/MS; format: in vivo, human; conditions: for Cmax: male, human, plasma, 2 weeks, read-out: UA plasma level, median (Cmax day 14)
Procedure: The compounds and their metabolites were measured using a UHPLC-MS/MS system on a Hybrid quadrupole-Orbitrap mass spectrometer (Q Exactive, Thermo Scientific, Waltham, MA, USA) hyphenated with a Thermo Scientific Vanquish Flex ultrahigh-pressure liquid chromatography (UHPLC) system via an electrospray ionization source. For the parallel reaction monitoring (PRM) scan, the resolution, automatic gain control (AGC) target, and maximum injection time (IT) were set at 17500, 2e5, and 100 ms, respectively. The NCE values for each metabolite were individually set, and the details are provided in Supplemental Table 1. The All-Ion Fragmentation (AIF) scan consisted of a scan range of m/z 100–750 with an NCE of 10. The resolution, AGC target, and maximum IT for the AIF scan were set at […], and 200 ms, respectively. More details regarding the preparation and calibration are provided in the Supplementary Methods section.

healthy men [2] = assay: Safety laboratory values, baseline vs end of two-week study; format: in vivo, human
Source text: Safety was compared to evaluate the number, frequency, duration, and relationship of toxicity events to CURC and UA, as defined by the Common Terminology Criteria for Adverse Events (CTCAE) v. […] The secondary outcomes included the measured plasma levels of UA, CURC, and selected metabolites. We also investigated the impact on the microbiome in a paired analysis for changes and the overall theme of imputed bacterial function.
Demographics between groups were compared using Fisher's exact test for categorical variables and Student's t-test for continuous variables. Laboratory safety values were analyzed using a paired t-test for differences, with significance set at p < 0.05. ANOVA was used to compare the plasma levels of UA, CURC, and CURC metabolites. Least significant difference (LSD) was used as the post-hoc analysis test to compare values between groups.
Laboratory analysis was performed at baseline and at the end of the two-week study. We then subtracted the values (week 2: baseline) to obtain the differences for each participant. […] Chronic kidney disease (CKD) is based on glomerulary filtration rate (GFR), and CKD stage 3 starts at a value below 60. […] Bicarbonate can be harmful if large changes occur in either direction, but clinicians are usually concerned about metabolic acidosis.

healthy men [3] = assay: Phase 1 clinical trial safety evaluation, adverse events by CTCAE v4.03; format: in vivo, human; conditions: for Toxicity Grade (CTCAE v4.0) / Relationship To Study Treatment: per event; for Toxicity Grade (CTCAE v4.0) / Relationship To Study Treatment / Event (adverse event term): 2 weeks oral; for Toxicity Grade (CTCAE v4.0) / Adverse Event (Yes/No) / Event (adverse event term): UA 300 mg/day, CURC 1200 mg/day; for Adverse Event (Yes/No) / Event (adverse event term): per subject; for Adverse Event (Yes/No): 2 weeks oral lipid capsules
Source text: We performed a standard 3 × 3 phase 1 design based on the safety evaluation of UA and CURC tested individually and then in combination (Study Schema in Supplemental Fig. 1). We modified the 3 × 3 design to include any toxicities because we selected the maximum dose due to the reported safety of large doses of these compounds. We enrolled subjects for a 2-week study period and used paired samples for individualized comparisons and pooled results for group comparisons.
We recruited healthy men enrolled in the San Antonio Biomarkers of Risk (SABOR) study, a community-based prostate cancer screening cohort. The San Antonio Biomarkers of Risk (SABOR) study cohort was funded by the 10.13039/100000054National Cancer Institute Early Detection Research Network-sponsored Clinical and Epidemiologic Validation Center since its nascent enrollment in 2000 (IRB# HSC20000030H). A separate IRB was approved for the Phase 1 trial (IRB# HSC20190940H). The participants had no prior diagnosis of prostate cancer at the time of enrollment and had varied prostate cancer risk profiles. We used data from the local UT Health San Antonio Data Safety and Monitoring Board (DSMB).
Safety was compared to evaluate the number, frequency, duration, and relationship of toxicity events to CURC and UA, as defined by the Common Terminology Criteria for Adverse Events (CTCAE) v. 4.03. The secondary outcomes included the measured plasma levels of UA, CURC, and selected metabolites. We also investigated the impact on the microbiome in a paired analysis for changes and the overall theme of imputed bacterial function.

[4] = Human microsomal metabolism of UA alone or with CURC; format: in vitro ADME; conditions: UA 4 μM, HLM, NADPH, 37 °C
Procedure: The respective stock solutions were further diluted using MeOH to prepare calibration curve standards and working solutions. The diluent was prepared by spiking the IS (C-d6 and BA) in 100% MeOH to obtain a concentration of 100 ng/mL. The solutions were stored at −20 °C before use. […] Aliquots of 30 μL were collected at different time points, and the reaction was terminated by adding 120 μL of the diluent. Finally, the collected samples were vigorously vortexed, centrifuged for 10 min at 4 °C and 50 μL of the clear supernatant was transferred to LC-MS vials for analysis. UHPLC–MS analysis was performed using a Thermo Scientific Vanquish UHPLC system coupled with an Orbitrap IQ-X Tribrid mass spectrometer with an electrospray ionization (ESI) interface. […] The H-ESI interface was operated in negative ion mode with interface ion transfer tube temperature 320 °C, vaporizing temperature 250 °C, sheath gas 45 Arb, auxiliary gas 10 Arb, sweep gas 2 Arb, and detector voltage 3.5 kV. […] Data processing was performed using the Thermo Scientific Freestyle software (1.8. SP2 version).

[5] = CURC alone group, 1200 mg/day oral, day 14
[6] = combination group (CurcUA), day 14
[7] = week 2 minus baseline, n = 6 per group
[8] = adverse event Creatinine increased
[9] = Musculoskeletal domain adverse event
[10] = Nervous system domain adverse event

| SMILES | Difference in ALT, median (IQR) (healthy men [2]; [7]) | Difference in AST, median (IQR) (healthy men [2]; [7]) | Difference in Albumin, median (IQR) (healthy men [2]; [7]) | Difference in Alkaline Phosphatase, median (IQR) (healthy men [2]; [7]) | Difference in Bicarbonate, median (IQR) (healthy men [2]; [7]) | Difference in Bilirubin, median (IQR) (healthy men [2]; [7]) | Difference in Calcium, median (IQR) (healthy men [2]; [7]) | Difference in Chloride, median (IQR) (healthy men [2]; [7]) | Difference in Creatinine, median (IQR) (healthy men [2]; [7]) | Difference in Hematocrit, median (IQR) (healthy men [2]; [7]) | Difference in Hemoglobin, median (IQR) (healthy men [2]; [7]) | Difference in Platelets, median (IQR) (healthy men [2]; [7]) | Difference in Sodium, median (IQR) (healthy men [2]; [7]) | Difference in White blood cell (WBC), median (IQR) (healthy men [2]; [7]) | Adverse Event (Yes/No) (healthy men [3]) | also measured |
| --- | --- | --- | --- | --- | --- | --- | --- | --- | --- | --- | --- | --- | --- | --- | --- | --- |
| COc1cc(/C=C/C(=O)CC(=O)/C=C/c2ccc(O[C@@H]3O[C@H](C(=O)O)[C@@H](O)[C@H](O)[C@H]3O)c(OC)c2)ccc1O [CURC glucuronide, curcumin glucuronide] | – | – | – | – | – | – | – | – | – | – | – | – | – | – | – | CURC glucuronide plasma level, median [1, 5]: 24.0 ng/mL; CURC glucuronide plasma level, median [1, 6]: 25 ng/mL |
| COc1cc(/C=C/C(=O)CC(=O)/C=C/c2ccc(O)c(OC)c2)ccc1O [Curcumin, curcumin] | −1.0 (−3.25 to 0.0) | 2.0 (−2.0 to 3.3) | 0.05 (−0.05 to 0.2) | −2.0 (−5.5 to 9.3) | −1.5 (−4.3 to 0.0) | −0.1 (−0.3 to 0.0) | 0.2 (−0.15 to 0.32) | −0.5 (−1.3 to 0.8) | 0.07 (−0.07 to 0.16) | 0.25 (−1.45 to 2.35) | 0.20 (−0.30 to 0.55) | 7.0 (−5 to 31.5) | 0.0 (−1.5 to 1.0) | 0.15 (−0.43 to 0.68) | No and Yes | GFR after 2 weeks, individual participant (healthy men [2]; baseline GFR 45 (CURC arm participant), 76 (CurcUA participant)): 46; Creatinine after treatment in subject with event 'Creatinine increased' (Comments) (healthy men [2]; individual subjects, baselines 1.10, 1.0, 1.13): Creatine increased from 1.10 to 1.24; also recorded: Creatine increased from 1.0 to 1.21; Difference in Glomerular Filtration Rate (GFR), median (IQR) (healthy men [2]; [7]): −5.5 (−12.0 to 4.5); CURC parent compound plasma level, median [1, 5]: 0.42 ng/mL; Highest plasma level of CURC [1, 5]: 0.52 ng/mL; CURC plasma level, median [1, 6]: 0.0 ng/mL; Toxicity Grade (CTCAE v4.0) (healthy men [3]; adverse event Bloating): 2; Toxicity Grade (CTCAE v4.0) (healthy men [3]; [8]): 1; Relationship To Study Treatment (healthy men [3]; [8]): Unlikely; Relationship To Study Treatment (healthy men [3]; adverse event Diarrhea): Possible; Event (adverse event term) (healthy men [3]; adverse event Bloating): Bloating; Event (adverse event term) (healthy men [3]; [8]): Creatinine increased; Event (adverse event term) (healthy men [3]; adverse event Diarrhea): Diarrhea; Event (adverse event term) (healthy men [3]; adverse event Flatulence): Flatulence |
| C[C@H]1[C@H](C)CC[C@]2(C(=O)O)CC[C@]3(C)C(=CC[C@@H]4[C@@]5(C)CC[C@H](O)C(C)(C)[C@@H]5CC[C@]43C)[C@H]12 [Ursolic Acid, ursolic acid] | 1.5 (1.0–12.8) | 2.0 (−1.3 to 3.3) | 0.0 (−0.1 to 0.2) | 2.5 (−2.5 to 5.0) | 1.0 (−1.5 to 3.0) | 0.0 (−0.08 to 0.15) | 0.03 (−0.05 to 0.48) | −1.0 (−2.75 to 1.75) | −0.08 (−0.33 to 0.12) | 1.55 (−0.85 to 2.85) | 0.20 (−0.33 to 0.58) | 9.5 (2.5–27) | 0.5 (−1.5 to 2.25) | 0.20 (−0.23 to 0.85) | No and Yes | UA remaining at 40 min ([4]; UA-only incubations): 47%; UA remaining at 40 min ([4]; ratio 1:4 (UA: CURC)): 73%; Cmax ([1]; UA alone group, UA 300 mg/day oral): 2.7 ng/mL; Cmax ([1]; combination group (CurcUA), UA 300 mg/day + CURC 1200 mg/day oral): 43.8 ng/mL; Increase of UA plasma levels, combination vs UA alone ([1]; median 2.7 to 43.8 ng/mL): 16 fold; Number of low-grade gastrointestinal (GI)-related complaints attributed (healthy men [3]; CTCAE v4.03, n): 3; Relationship To Study Treatment (healthy men [3]): Unlikely; Toxicity Grade (CTCAE v4.0) (healthy men [3]; [9]): 1; Toxicity Grade (CTCAE v4.0) (healthy men [3]; [10]): 2; Event (adverse event term) (healthy men [3]; [9]): Joint pain; Event (adverse event term) (healthy men [3]; [10]): Vasovagal Reaction; also recorded: Pre-syncope |

— article PMC11384084 (Journal of Traditional and Complementary Medicine, 2024)
